Experiments:
Experiment in all cases: relative viability (nuclei count vs DMSO), 5 days (fraction); higher = more cells survive
Staurosporine + OSI-027 = compound: CN[C@@H]1C[C@H]2O[C@@](C)([C@@H]1OC)n1c3ccccc3c3c4c(c5c6ccccc6n2c5c31)C(=O)NC4 [Staurosporine] + COc1cccc2cc(-c3nc([C@H]4CC[C@H](C(=O)O)CC4)n4ncnc(N)c34)[nH]c12 [OSI-027] (partner 0.5 µM)
Procedure, shortened: (§1)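 Lung cancer cell lines were pin-tool dosed in 1536-well plates on the day after seeding, with either a lone drug or a fixed anchor-drug dose plus five library-drug doses (not always all listed) in √10 steps. Nuclei were counted on 4× images after 5 days. Relative viability is the ratio of treated-well to vehicle-well nuclei counts, with each value a median of duplicate plates.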

Sulindac + Dasatinib = compound: CC1=C(CC(=O)O)c2cc(F)ccc2/C1=C\c1ccc([S+](C)[O-])cc1 [Sulindac] + Cc1nc(Nc2ncc(C(=O)Nc3c(C)cccc3Cl)s2)cc(N2CCN(CCO)CC2)n1 [Dasatinib] (partner 0.075 µM)
Procedure, shortened: as §1

Staurosporine + AZD7762 = compound: CN[C@@H]1C[C@H]2O[C@@](C)([C@@H]1OC)n1c3ccccc3c3c4c(c5c6ccccc6n2c5c31)C(=O)NC4 [Staurosporine] + NC(=O)Nc1cc(-c2cccc(F)c2)sc1C(=O)N[C@H]1CCCNC1 [AZD7762] (partner 0.2 µM)
Procedure, shortened: as §1

Sulindac + Palbociclib = compound: CC1=C(CC(=O)O)c2cc(F)ccc2/C1=C\c1ccc([S+](C)[O-])cc1 [Sulindac] + CC(=O)c1c(C)c2cnc(Nc3ccc(N4CCNCC4)cn3)nc2n(C2CCCC2)c1=O [Palbociclib] (partner 0.5 µM)
Procedure, shortened: as §1

| Cell Line | relative viability (Staurosporine + OSI-027; first compound 0.005 µM) | relative viability (Staurosporine + OSI-027; first compound 0.01581 µM) | relative viability (Staurosporine + OSI-027; first compound 0.05 µM) | relative viability (Staurosporine + OSI-027; first compound 0.1581 µM) | relative viability (Staurosporine + OSI-027; first compound 0.5 µM) | relative viability (Sulindac + Dasatinib; first compound 0.08 µM) | relative viability (Sulindac + Dasatinib; first compound 0.253 µM) | relative viability (Sulindac + Dasatinib; first compound 0.8 µM) | relative viability (Sulindac + Dasatinib; first compound 2.53 µM) | relative viability (Sulindac + Dasatinib; first compound 8 µM) | relative viability (Staurosporine + AZD7762; first compound 0.005 µM) | relative viability (Staurosporine + AZD7762; first compound 0.01581 µM) | relative viability (Staurosporine + AZD7762; first compound 0.05 µM) | relative viability (Staurosporine + AZD7762; first compound 0.1581 µM) | relative viability (Staurosporine + AZD7762; first compound 0.5 µM) | relative viability (Sulindac + Palbociclib; first compound 0.08 µM) | relative viability (Sulindac + Palbociclib; first compound 0.253 µM) | relative viability (Sulindac + Palbociclib; first compound 0.8 µM) | relative viability (Sulindac + Palbociclib; first compound 2.53 µM) | relative viability (Sulindac + Palbociclib; first compound 8 µM) |
| --- | --- | --- | --- | --- | --- | --- | --- | --- | --- | --- | --- | --- | --- | --- | --- | --- | --- | --- | --- | --- |
| HCC-827 | 0.875 | 0.672 | 0.476 | 0.383 | 0.211 | 0.348 | 0.412 | 0.251 | 0.319 | 0.338 | 0.204 | 0.179 | 0.153 | 0.143 | 0.115 | 0.496 | 0.552 | 0.48 | 0.547 | 0.465 |
| HOP-62 | 0.554 | 0.225 | 0.125 | 0.112 | 0.0933 | 0.696 | 0.652 |  | 0.718 | 0.646 | 0.358 | 0.128 |  | 0.126 | 0.0794 | 0.495 | 0.553 | 0.469 | 0.525 | 0.541 |
| LC-2-ad | 0.807 | 0.25 | 0.342 | 0.216 | 0.199 | 0.584 | 0.718 | 0.337 | 0.418 | 0.839 |  | 0.276 | 0.172 | 0.12 | 0.0995 | 0.521 | 0.514 | 0.37 | 0.469 | 0.547 |
| LCLC-97TM1 | 0.343 | 0.234 | 0.245 | 0.203 | 0.198 | 0.996 | 0.951 | 0.637 | 0.711 | 0.998 | 0.225 | 0.121 | 0.169 | 0.176 | 0.141 | 0.201 | 0.244 | 0.203 | 0.212 | 0.277 |
| LCLC-103H | 0.531 | 0.219 | 0.168 | 0.194 | 0.153 | 0.5 | 0.477 | 0.376 | 0.458 | 0.508 | 0.827 | 0.41 | 0.334 | 0.231 | 0.194 | 0.465 | 0.496 | 0.478 | 0.453 | 0.424 |
| LK-2 | 0.256 | 0.158 | 0.244 | 0.151 | 0.111 | 0.325 | 0.215 |  |  | 0.313 | 0.571 | 0.448 | 0.394 | 0.0558 | 0.0592 | 0.879 | 0.624 | 0.496 | 0.369 | 0.88 |
| LOU-NH91 | 0.767 | 0.571 | 0.487 | 0.344 | 0.213 | 0.65 | 0.53 | 0.481 | 0.54 | 0.573 | 0.555 | 0.341 | 0.395 | 0.254 | 0.247 | 0.473 | 0.535 | 0.536 | 0.521 | 0.571 |
| NCI-H520 | 0.294 | 0.319 | 0.274 | 0.268 | 0.141 | 0.241 | 0.201 |  | 0.204 | 0.226 |  |  |  |  |  | 0.231 | 0.239 | 0.221 | 0.244 | 0.278 |
| NCI-H596 | 0.798 | 0.285 | 0.439 | 0.179 | 0.135 | 0.563 | 0.56 | 0.6 | 0.666 | 0.641 | 1.08 | 0.769 | 0.471 | 0.28 | 0.303 |  |  |  |  |  |

From the supplement of paper PMC10307832
